Data on one compound can be found in patent US20080058399A1, “Pharmaceutical Compositions” (ASTRAZENECA AB, priority 2006, published 2008).

A short description of series [1]: Dissolution study, USP dissolution apparatus II. It is filed as physicochemical. Particulars: 500 ml 0.2% polysorbate 20 in 0.05 M phosphate buffer pH 6.5, paddle 75 rpm; 8 mg c.c. added except tablets as footnoted. Here is the method: The medium used for dissolution studies was 500 ml of 0.2% polysorbate 20 in 0.05 M phosphate buffer pH 6.5 with a paddle speed of 75 rpm (USP dissolution apparatus II). In all dissolution tests, 8 mg of candesartan cilexetil was added to the medium (except where other is stated). After extraction with 60% (v/v) acetonitrile in water (filter pore size 0.45 μm), the amount of candesartan cilexetil was determined by liquid chromatography and UV-detection at 254 nm.

Series [2] in a line: Bioavailability in rats after per-oral administration. Conditions: rat, in vivo, read-out: Relative bioavailability.
For series [3] the following is noted: cited from earlier work.

Read-outs that look alike come from different tables or passages of the source.

In general, bioavailability refers to dose-corrected exposure relative to a reference, in per cent. Take `CCOc1nc2cccc(C(=O)OC(C)OC(=O)OC3CCCCC3)c2n1Cc1ccc(-c2ccccc2-c2nnn[nH]2)cc1` (stereo not shown) [c.c., candesartan cilexetil]: in series [1], the “Drug dissolved after 5 minutes” value stood at 24, the “Drug dissolved after 10 minutes” value is on record as 43, the “Drug dissolved after 15 minutes” value is 54 and the “Drug dissolved after 20 minutes” value is recorded as 61. Also, the bioavailability in series [2] (given as a suspension) came to 19%. Besides, the bioavailability in series [2] (given in solution) came to 50%. In addition, the Solubility in water in series [3] was under 0.05 µg/mL.
